Measured values taken from US20200399238A1, “THERAPEUTIC AURONES” (MIDDLE TENNESSEE STATE UNIVERSITY, priority 2016, published 2020).

Experiments:
iNOS = assay: Western blot, iNOS expression, RAW 264.7; conditions: LPS-stimulated RAW264.7, 24 h
Protocol: (§1) U0126 is a compound that inhibits MEK1/2 and was used as positive control for ERK phosphorylation inhibition (Hotokezaka, Sakai et al. 2002). Cells were lysed with radio-immunoprecipitation assay (RIPA) lysis buffer that contained a protease and phosphatase inhibitor cocktail. Cell lysates were then tested for protein concentration using a BCA protein assay and diluted with RIPA lysis buffer to normalize protein concentration in all samples. Lysates were mixed with sample loading buffer containing bromophenol blue, glycerol, SDS, and 2-mercaptoethanol. The separated proteins were then transferred onto a nitrocellulose membrane and blocked with 5% BSA in IX Tris-buffered saline with 0.1% Tween-20 for 1 h. The blots were incubated with primary antibodies at 4° C. overnight followed by incubation with HRP-conjugated secondary antibodies for 2 h at 22° C. The membranes were developed by addition of ECL substrate and images were collected with a ChemiDoc XRS+ system chemiluminescence imager (Bio-Rad, Hercules, Calif., USA). Western blot band intensity was quantified using Image Lab software (Bio-Rad, Hercules, Calif., USA). […]

IKKβ, IκBα, p65 = assay: Western blot, IKK / IκBα / p65 phosphorylation, THP-1; conditions: 12.5, 25, 50 μM, LPS 15 min, dose-dependent
Protocol: as §1

TNFα mRNA = assay: Quantitative RT-PCR of TNF-α transcription, THP-1; format: cell-based, human; conditions: 80 μM pre-treatment, LPS 4 h, differentiated THP-1
Protocol: Transcription of TNF-α (NM 000594) and beta-2-microglobin, 132M (NM 004048), in 2.5×10^5 PMA-differentiated THP1 cells was investigated in cells without treatment, stimulated with […] Salmonella LPS, or pretreated for 1 hour with 1 μM dexamethasone or 80 μM aurone 1 followed by 4 hours of incubation with 20 ng/ml LPS. Total RNA was purified after 4 hours of LPS stimulation using the Maxwell 16 LEV simplyRNA Tissue Kit (Promega, WI, USA) per manufacturer's instructions (Jeffries, Kiss et al. 2014). Total RNA concentrations and the 260/280 nm ratios of each RNA sample were assessed using a NanoDrop 2000 UV-Vis spectrophotometer (Thermo Fisher Scientific, MA, USA). SYBR® FAST One-step qRT-PCR (KAPA Biosystems, MA, USA) was used to examine gene transcription after reaction optimization.
QuantiTect® Primer Assay TNF (QT01079561) and B2M (Q300088935) primer (Qiagen, CA, USA) optimization studies, including melt curve analyses to confirm primer specificity and efficiency, were conducted to find appropriate running conditions (Fajardy, Moitrot et al. 2009). Briefly, the optimized conditions were 1 ng of total RNA added to 20 μl of reaction including 150 nM of forward and reverse primers. […] The fold change was calculated by using 2^−ΔΔct normalized to LPS alone (Schmittgen and Livak 2008).

[1] = tested on: p65-EGFP / TNFα promoter mCherry reporter; assay: Live cell imaging of RAW 264.7 dual reporter cells (p65-EGFP, TNFα promoter mCherry); format: cell-based, murine; conditions: 50 μM pre-treatment
Protocol: Cells were maintained at 37° C. with 5% CO2 in a humidified atmosphere during imaging. EGFP and mCherry fluorescence were imaged using FITC and Cy3 filters, respectively. Nikon Elements Software (Nikon. USA) was used for microscope control and image capture. Post-acquisition, images were analyzed using Fiji (Schindelin, Arganda-Carreras et al. 2012). Images were background subtracted and cytoplasmic:nuclear p65-EGFP and whole cell mCherry fluorescence were quantified for individual cells at each time point.

[2] = tested on: C. glabrata (ATCC strain 66032); assay: Antifungal microdilution broth assay (PrestoBlue), C. glabrata; format: cell-based, Candida glabrata; conditions: Nakaseomyces glabratus, ATCC66032; Table 5
Protocol: Sigma-Aldrich) was used as the base medium for testing. […] solution of morpholinepropanesulfonic acid (MOPS; Sigma-Aldrich) was added to the RPMI to a final concentration of 0.165 M for buffering (RPMI-MOPS). This medium was adjusted to a pH of 7.0 with 10 M NaOH and filter sterilized. C. albicans (ATCC strain 90028), C. [NT] strain 66032), and C. tropicalis (ATCC strain 750) were cultured on potato dextrose agar (Sigma-Aldrich) plates, and incubated at 35° C. for 24 hours. For antifungal testing, overnight colonies were adjusted to 1.5×10^3 cells/mL, hereafter referred to as the test inoculum. […] Reduction of the compound from resazurin to resorufin is proportional to the number of metabolically active cells and can be quantified by measuring relative fluorescence units (RFUs). […] PrestoBlue was added to a final concentration of 10% in each well and fluorescence read at 560 nm excitation and 590 nm emission, per manufacturer instructions, using a SpectraMax M2e spectrophotometer (Molecular Devices, LLC, Sunnyvale, Calif.). […] The calculated Z', as described below, was compared to RFU readings and the optimal PrestoBlue incubation time was determined to be 75 minutes. IC50 determination was calculated using GraphPad Prism version 7.01 for Windows (GraphPad Software, Inc., La Jolla, Calif.) from the RFUs at dilution points. […]

SMILES | reduction in iNOS levels (iNOS; 50 μM) [%] | reduction in iNOS levels (iNOS; 100 μM) [%] | phosphorylation of IKKβ, IκBα and p65 (IKKβ, IκBα, p65) | reduction of TNFα mRNA levels (TNFα mRNA) [%] | expression of mCherry (TNFα promoter reporter) [1] | nuclear translocation of p65-EGFP post-LPS [1] | IC50 [2] [µM]
O=C1/C(=C/c2ccc(CO)o2)Oc2ccccc21 [aurone 1] | 31.7 | 57.5 | suppress the phosphorylation of all three proteins | 49 | smaller fold-change in the expression of mCherry | diminished | –
COc1ccc(/C=C2\Oc3c(ccc(O)c3O)C2=O)cc1O [Aurone 1009, (Z)-6,7-dihydroxy-2-(3-hydroxy-4-methoxybenzylidene)benzofuran-3(2H)-one] | – | – | – | – | – | – | 11
